According to patent US20250099448A1, “HETEROCYCLIC COMPOUNDS” (Hoffmann-La Roche Inc., priority 2022, published 2025):
Values belong to the compound of their own block, whether it stands above or below them.

Target: T1, MAGL protein (Homo sapiens, UniProt Q99685)
T1 sequence (Q99685 1-303): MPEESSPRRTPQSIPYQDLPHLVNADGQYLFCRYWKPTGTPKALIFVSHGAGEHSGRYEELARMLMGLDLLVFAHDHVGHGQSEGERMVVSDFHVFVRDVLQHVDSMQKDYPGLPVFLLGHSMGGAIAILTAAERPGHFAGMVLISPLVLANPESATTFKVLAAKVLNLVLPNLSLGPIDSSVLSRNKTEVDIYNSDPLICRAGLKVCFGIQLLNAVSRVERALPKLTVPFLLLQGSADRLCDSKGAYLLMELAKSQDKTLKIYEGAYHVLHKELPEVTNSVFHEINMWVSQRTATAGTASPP
Assay: 2-AG assay: MAGL inhibitory activity by hydrolysis of 2-arachidonoylglycerol to arachidonic acid, followed by mass spectrometry
Assay type: biochemical
Conditions: 8 μM 2-arachidonoylglycerol, 15 min preincubation, 30 min reaction at RT, RapidFire MS readout
In short: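 Activity was measured by RapidFire SPE–triple-quad MS as the ratio of arachidonic acid to d8-arachidonic acid after 2-AG hydrolysis (8 μM substrate, 30 min, RT, acetonitrile quench). Compounds, tested from 12.5 μM down to […], were first preincubated 15 min with MAGL in TRIS/EDTA/Tween-20 buffer containing 2.5% DMSO.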

Structure (SMILES): O=C(N1CC2(CCN(S(=O)(=O)C34CC(C(F)(F)F)(C3)C4)CC2)C1)N1CC2(CC(c3nnc(C4CC4)[nH]3)C2)C1 [compound 237]
IC50: 17.1 nM

Structure (SMILES): Cc1cc(C)n(C23CC(C4CN(C(=O)N5CC6(CC(c7nc(C8CC8)n[nH]7)C6)C5)C4)(C2)C3)n1 [compound 725]
IC50: 46.6 nM

Structure (SMILES): CC1(O)CN(c2ccc(C3CN(C(=O)N4CC5(CC(c6nnc(C7CC7)[nH]6)C5)C4)C3)cn2)C1 [compound 82]
IC50: 20.5 nM

Structure (SMILES): CS(=O)(=O)c1cccc(COC2CN(C(=O)N3CC4(CC(c5nnc(C6CC6)[nH]5)C4)C3)C2)c1 [compound 334]
IC50: 272 nM

Structure (SMILES): O=C(N1CC(COc2ccc(F)cc2Cl)C1)N1CC2(CC(c3nnc(C4CC4)[nH]3)C2)C1 [compound 353]
IC50: 5.12 nM

Structure (SMILES): O=C(N1CC(NCc2ccc(C(F)(F)F)cc2F)C1)N1CC2(CC(c3nnc(C4CC4)[nH]3)C2)C1 [compound 192]
IC50: 23.2 nM

Structure (SMILES): O=C(N1CC(c2ccc(C3(C(=O)O)CC3)cc2)C1)N1CC2(CC(c3nnc(C4CC4)[nH]3)C2)C1 [Example 392, 1-[4 [1-[6-(5-cyclopropyl-4H-1,2,4-triazol-3-yl)-2-azaspiro[3.3]heptane-2-carbonyl]azetidin-3-yl]phenyl]cyclopropanecarboxylic Acid]
IC50: 6.59 nM

Structure (SMILES): O=C(N1CC2(CC(c3nc(C4CC4)n[nH]3)C2)C1)N1CC2(CN(Cc3cccn(CC(F)(F)F)c3=O)C2)C1 [compound 572]
IC50: 184 nM

Structure (SMILES): Cc1cc(C2CC2)n(C23CC(C4CN(C(=O)N5CC6(CC(c7nc(C8(O)CC8)n[nH]7)C6)C5)C4)(C2)C3)n1 [compound 588]
IC50: 40.4 nM

Structure (SMILES): O=C(N1CC(OCc2ccc(C(F)(F)F)cc2F)C1)N1CC2(CC(c3nnc(C4(O)CC4)[nH]3)C2)C1 [compound 324]
IC50: 14.3 nM

Structure (SMILES): Cc1nc(C)c(CN2CC3(C2)CN(C(=O)N2CC4(CC(c5nnc(C6CC6)[nH]5)C4)C2)C3)s1 [compound 877]
IC50: 15.2 nM

Structure (SMILES): CC(C)c1ccc(N(C)c2ccc(C3CN(C(=O)N4CC5(CC(c6nnc(C7CC7)[nH]6)C5)C4)C3)cn2)cc1 [compound 382]
IC50: 21.4 nM

Structure (SMILES): O=C(N1CC2(CC(Cc3cncc(C(F)(F)F)c3)C2)C1)N1CC2(CC(c3nc(C4COC4)n[nH]3)C2)C1 [compound 748]
IC50: 37.2 nM

Structure (SMILES): NC(=O)C(c1ccc(F)cc1)C1CCN(C(=O)N2CC3(CC(c4nnc(C5CC5)[nH]4)C3)C2)CC1 (stereo not shown) [compound 362]
IC50: 106 nM

Structure (SMILES): CCc1nsc(CN2CC3(C2)CN(C(=O)N2CC4(CC(c5nc(C6CC6)n[nH]5)C4)C2)C3)n1 [compound 762]
IC50: 35.7 nM

Structure (SMILES): O=C(N1CC2(CCN(Cc3cc(C(F)(F)F)on3)CC2)C1)N1CC2(CC(c3nc(C4CC4)n[nH]3)C2)C1 [compound 544]
IC50: 8.72 nM

Structure (SMILES): O=C(N1CC(c2cnc(N3CC[C@H](C(F)(F)F)C3)nc2)C1)N1CC2(CC(c3nc(C4CC4)n[nH]3)C2)C1 (single isomer, unassigned) [compound 266]
IC50: 2.93 nM

Structure (SMILES): O=C(N1CC2(CC(Cc3ccc(F)cc3C(F)(F)F)C2)C1)N1CC2(CC(c3nc(C4CC(F)(F)C4)n[nH]3)C2)C1 [compound 468]
IC50: 2.5 nM

Structure (SMILES): CNc1ccc(C(=O)N2CCN(C(=O)N3CC4(CC(c5nnc(C6CC6)[nH]5)C4)C3)CC2)cc1 [Example 871, [4-[6-(5-cyclopropyl-4H-1,2,4-triazol-3-yl)-2-azaspiro[3.3]heptane-2-carbonyl]piperazino]-[4-(methylamino)phenyl]methanone]
IC50: 342 nM

Structure (SMILES): O=C(N1CC2(CC(CNCC3(C(F)(F)F)CC3)C2)C1)N1CC2(CC(c3nnc(C4CC4)[nH]3)C2)C1 [compound 352]
IC50: 3.94 nM

Structure (SMILES): O=C(N1CC2(CC(Cc3ccc4ncnn4c3)C2)C1)N1CC2(CC(c3nc(C4(O)CC4)n[nH]3)C2)C1 [compound 626]
IC50: 56.4 nM

Structure (SMILES): O=C(N1CC2(CC(c3nc(C4(F)CC4)n[nH]3)C2)C1)N1CC2(CN(Cc3nc(C(F)(F)F)cs3)C2)C1 [compound 643]
IC50: 6.67 nM

Structure (SMILES): O=C(N1CC(Oc2ccc(C(F)(F)F)cc2)C1)N1CC2(CC(c3nnc(C4(O)CC4)[nH]3)C2)C1 [compound 323]
IC50: 12.3 nM

Structure (SMILES): O=C(N1CC2(CC(c3nc(C4CC4)n[nH]3)C2)C1)N1CC2(CN(Cc3noc(C(F)(F)F)n3)C2)C1 [compound 957]
IC50: 97.3 nM

Structure (SMILES): O=C(N1CC2(CCC(Cc3ccc(Cl)cn3)CC2)C1)N1CC2(CC(c3nnc(C4(O)CC4)[nH]3)C2)C1 [compound 139]
IC50: 3.87 nM

Structure (SMILES): O=C(N1CC(c2ccc(N3CCC(C(F)(F)F)CC3=O)cc2)C1)N1CC2(CC(c3nnc(C4CC4)[nH]3)C2)C1 (single isomer, unassigned) [compound 280]
IC50: 3.82 nM

Structure (SMILES): O=C(N1CC2(CC(Cn3cc(C(F)(F)F)ccc3=O)C2)C1)N1CC2(CC(c3nc(C4(O)CC4)n[nH]3)C2)C1 [compound 621]
IC50: 3.62 nM

The next compounds have a lower IC50 than those just listed; values first:

IC50: 2.24 nM
Structure (SMILES): O=C(N1CC2(CC(Cc3ccc(F)cn3)C2)C1)N1CC2(CC(c3nnc(C4(O)CC4)[nH]3)C2)C1 [compound 44]

IC50: 2.22 nM
Structure (SMILES): Cn1cc(OC2CC3(C2)CN(C(=O)N2CC4(CC(c5nc(C6CC6)n[nH]5)C4)C2)C3)c(C(F)(F)F)n1 [compound 425]

IC50: 2.04 nM
Structure (SMILES): O=C(N1CC2(CC(Cc3ccc(C(F)(F)F)cn3)C2)C1)N1CC2(CC(c3nnc(C4CCC4)[nH]3)C2)C1 [compound 112]

IC50: 1.42 nM
Structure (SMILES): O=C(N1CC2(CC(Cc3c[nH]c(=O)c(C(F)F)c3)C2)C1)N1CC2(CC(c3nc(C4CC4)n[nH]3)C2)C1 [compound 954]

IC50: 1.32 nM
Structure (SMILES): CC(C)(C)c1csc(CN2CC3(C2)CN(C(=O)N2CC4(CC(c5nc(C6CC6)n[nH]5)C4)C2)C3)n1 [compound 740]

IC50: 1.3 nM
Structure (SMILES): O=C(N1CC2(CC(Cc3ccc(S(=O)(=O)C4CC4)cc3)C2)C1)N1CC2(CC(c3nc(C4(O)CC4)n[nH]3)C2)C1 [compound 505]

IC50: 1.04 nM
Structure (SMILES): O=C(N1CC2(CC(Cc3cnc(C(F)(F)F)nc3)C2)C1)N1CC2(CC(c3nc(C4(F)CC4)n[nH]3)C2)C1 [compound 565]

IC50: 0.99 nM
Structure (SMILES): N#Cc1cc(CC2CC3(C2)CN(C(=O)N2CC4(CC(c5nnc(C6CC6)[nH]5)C4)C2)C3)cc(C(F)(F)F)n1 [compound 778]

IC50: 0.9 nM
Structure (SMILES): N#Cc1cc(C(F)(F)F)ncc1CC1CC2(C1)CN(C(=O)N1CC3(CC(c4nnc(C5(O)CC5)[nH]4)C3)C1)C2 [compound 433]

IC50: 0.66 nM
Structure (SMILES): O=C(N1CC2(CC(c3nc(C4CC4)n[nH]3)C2)C1)N1CC2(CCN(Cc3cccc(S(=O)(=O)C(F)(F)F)c3)C2)C1 [compound 549]

IC50: 0.18 nM
Structure (SMILES): O=C(N1CC2(CC(Cc3ccc(S(=O)(=O)C(F)(F)F)cn3)C2)C1)N1CC2(CC(c3nc(C4CC4)n[nH]3)C2)C1 [compound 813]

IC50: 0.12 nM
Structure (SMILES): Cn1nc(CC2CC3(C2)CN(C(=O)N2CC4(CC(c5nc(C6CC6)n[nH]5)C4)C2)C3)cc1C(F)(F)F [compound 506]

IC50: 0.11 nM
Structure (SMILES): Cn1nc(CC2CC3(C2)CN(C(=O)N2CC4(CC(c5nc(C6(F)CC6)n[nH]5)C4)C2)C3)cc1C(F)(F)F [compound 602]

IC50: 0.07 nM
Structure (SMILES): CS(=O)(=O)c1cc(Cl)ccc1-c1ccc(C2CN(C(=O)N3CC4(CC(c5nnc(C6CC6)[nH]5)C4)C3)C2)cc1 [compound 337]

IC50: 0.06 nM
Structure (SMILES): NC1(c2nnc(C3CC4(C3)CN(C(=O)N3CC5(CC(Cc6ccc(C(F)(F)F)cc6F)C5)C3)C4)[nH]2)CC1 [Example 852, [6-[5-(1-aminocyclopropyl)-4H-1,2,4-triazol-3-yl]-2-azaspiro[3.3]heptan-2-yl]-[6-[[2-fluoro-4-(trifluoromethyl)phenyl]methyl]-2-azaspiro[3.3]heptan-2-yl]methanone]

IC50: 0.06 nM
Structure (SMILES): Cn1cc(-c2ccc(C3CN(C(=O)N4CC5(CC(c6nnc(C7CC7)[nH]6)C5)C4)C3)cc2)c(C(F)(F)F)n1 [compound 834]
